Experimental data taken from ChEMBL document CHEMBL1155731, “Montipyridine, a new pyridinium alkaloid from the stony coral montipora species” (2001).

Assays:
Assay type in all cases: functional
Details in all cases: read-out: ED50 (the source's name)
XF498 = experiment: Cytotoxicity against human XF498 cells
SK-MEL-2 = experiment: Cytotoxicity against human SK-MEL-2 cells
SK-OV-3 = experiment: Cytotoxicity against human SKOV3 cells
A549 = experiment: Cytotoxicity against human A549 cells
HCT-15 = experiment: Cytotoxicity against human HCT15 cells

Measured: EC50

C=CCCCCCCCc1cc(OC)cc[n+]1CC(=O)[O-] [MONTIPYRIDINE]
> 30 µg/mL: all assays above
